Legend:
[1] = The drug is tested on WLS-006 corresponding to human gut metagenome with ENA study accession number: PRJEB37062 and ENA sample accession number: ERS12561741 for biotransformation under anaerobic condition. The drug concentrations were measured over 9 timepoints collected between 0 and 24 hours of incubation by liquid-chromatography-coupled mass spectrometry (LC–MS); details: 2 µM
[2] = The drug is tested on WLS-086 corresponding to human gut metagenome with ENA study accession number: PRJEB37062 and ENA sample accession number: ERS12561752 for biotransformation under anaerobic condition. The drug concentrations were measured over 9 timepoints collected between 0 and 24 hours of incubation by liquid-chromatography-coupled mass spectrometry (LC–MS); details: 2 µM
[3] = The drug is tested on Z-005 corresponding to metagenome with ENA study accession number: PRJEB37062 and ENA sample accession number: ERS12561805 for biotransformation under anaerobic condition. The drug concentrations were measured over 9 timepoints collected between 0 and 24 hours of incubation by liquid-chromatography-coupled mass spectrometry (LC–MS); details: 2 µM
[4] = human gut metagenome, 24 h, 2 µM
[5] = human gut metagenome, 24 h, 2 µM; remark: listed apart in the source
[6] = The drug is tested on Z-004 corresponding to metagenome with ENA study accession number: PRJEB37062 and ENA sample accession number: ERS12561804 for biotransformation under anaerobic condition. The drug concentrations were measured over 9 timepoints collected between 0 and 24 hours of incubation by liquid-chromatography-coupled mass spectrometry (LC–MS); details: 2 µM
[7] = The drug is tested on Z-025 corresponding to rabbit gut metagenome with ENA study accession number: PRJEB37062 and ENA sample accession number: ERS12561824 for biotransformation under anaerobic condition. The drug concentrations were measured over 9 timepoints collected between 0 and 24 hours of incubation by liquid-chromatography-coupled mass spectrometry (LC–MS); details: 2 µM
[8] = The drug is tested on Z-016 corresponding to mouse gut metagenome with ENA study accession number: PRJEB37062 and ENA sample accession number: ERS12561815 for biotransformation under anaerobic condition. The drug concentrations were measured over 9 timepoints collected between 0 and 24 hours of incubation by liquid-chromatography-coupled mass spectrometry (LC–MS); details: 2 µM
[9] = human gut metagenome, 24 h, 2 µM; remark: listed apart in the source
[10] = human gut metagenome, 24 h, 2 µM; remark: listed apart in the source
[11] = human gut metagenome, 24 h, 2 µM; remark: listed apart in the source
[12] = The drug is tested on WLS-098 corresponding to human gut metagenome with ENA study accession number: PRJEB37062 and ENA sample accession number: ERS12561754 for biotransformation under anaerobic condition. The drug concentrations were measured over 9 timepoints collected between 0 and 24 hours of incubation by liquid-chromatography-coupled mass spectrometry (LC–MS); details: 2 µM
[13] = The drug is tested on Z-008 corresponding to metagenome with ENA study accession number: PRJEB37062 and ENA sample accession number: ERS12561808 for biotransformation under anaerobic condition. The drug concentrations were measured over 9 timepoints collected between 0 and 24 hours of incubation by liquid-chromatography-coupled mass spectrometry (LC–MS); details: 2 µM
[14] = human gut metagenome, 24 h, 2 µM; remark: listed apart in the source
[15] = human gut metagenome, 24 h, 2 µM; remark: listed apart in the source
[16] = The drug is tested on WLS-039 corresponding to human gut metagenome with ENA study accession number: PRJEB37062 and ENA sample accession number: ERS12561746 for biotransformation under anaerobic condition. The drug concentrations were measured over 9 timepoints collected between 0 and 24 hours of incubation by liquid-chromatography-coupled mass spectrometry (LC–MS); details: 2 µM
[17] = The drug is tested on Z-030 corresponding to mouse gut metagenome with ENA study accession number: PRJEB37062 and ENA sample accession number: ERS12561829 for biotransformation under anaerobic condition. The drug concentrations were measured over 9 timepoints collected between 0 and 24 hours of incubation by liquid-chromatography-coupled mass spectrometry (LC–MS); details: 2 µM
[18] = human gut metagenome, 24 h, 2 µM; remark: listed apart in the source
[19] = The drug is tested on WLS-090 corresponding to human gut metagenome with ENA study accession number: PRJEB37062 and ENA sample accession number: ERS12561753 for biotransformation under anaerobic condition. The drug concentrations were measured over 9 timepoints collected between 0 and 24 hours of incubation by liquid-chromatography-coupled mass spectrometry (LC–MS); details: 2 µM
[20] = The drug is tested on WLS-310 corresponding to human gut metagenome with ENA study accession number: PRJEB37062 and ENA sample accession number: ERS12561785 for biotransformation under anaerobic condition. The drug concentrations were measured over 9 timepoints collected between 0 and 24 hours of incubation by liquid-chromatography-coupled mass spectrometry (LC–MS); details: 2 µM
Note: call rule not given here.

Structure (SMILES)	Bacterial Biotransformation [1]	Bacterial Biotransformation [2]	Bacterial Biotransformation [3]	Bacterial Biotransformation [4]	Bacterial Biotransformation [5]	Bacterial Biotransformation [6]	Bacterial Biotransformation [7]	Bacterial Biotransformation [8]	Bacterial Biotransformation [9]	Bacterial Biotransformation [10]	Bacterial Biotransformation [11]	Bacterial Biotransformation [12]	Bacterial Biotransformation [13]	Bacterial Biotransformation [14]	Bacterial Biotransformation [15]	Bacterial Biotransformation [16]	Bacterial Biotransformation [17]	Bacterial Biotransformation [18]	Bacterial Biotransformation [19]	Bacterial Biotransformation [20]
CCCc1nc2c(C)cc(-c3nc4ccccc4n3C)cc2n1Cc1ccc(-c2ccccc2C(=O)O)cc1	Compound metabolized	Compound metabolized	Compound metabolized	Compound metabolized	Compound metabolized	Compound metabolized	Compound metabolized	Compound metabolized	Compound metabolized	Compound metabolized	Compound NOT metabolized	Compound metabolized	Compound metabolized	Compound metabolized	Compound metabolized	Compound metabolized	Compound NOT metabolized	Compound metabolized	Compound metabolized	Compound metabolized
Cc1cc2c(cc1S(N)(=O)=O)S(=O)(=O)CCC2	Compound NOT metabolized	Compound NOT metabolized	Compound NOT metabolized	Compound NOT metabolized	Compound NOT metabolized	Compound NOT metabolized	Compound NOT metabolized	Compound NOT metabolized	Compound NOT metabolized	Compound NOT metabolized	Compound NOT metabolized	Compound NOT metabolized	Compound NOT metabolized	Compound NOT metabolized	Compound NOT metabolized	Compound NOT metabolized	Compound NOT metabolized	Compound NOT metabolized	Compound NOT metabolized	Compound NOT metabolized
CN1CCc2c(c3ccccc3n2Cc2ccccc2)C1.CN1CCc2c(c3ccccc3n2Cc2ccccc2)C1.O=S(=O)(O)c1cccc2c(S(=O)(=O)O)cccc12	Compound NOT metabolized	Compound NOT metabolized	Compound NOT metabolized	Compound metabolized	Compound metabolized	Compound NOT metabolized	Compound metabolized	Compound NOT metabolized	Compound NOT metabolized	Compound NOT metabolized	Compound NOT metabolized	Compound NOT metabolized	Compound NOT metabolized	Compound NOT metabolized	Compound NOT metabolized	Compound metabolized	Compound NOT metabolized	Compound NOT metabolized	Compound metabolized	Compound NOT metabolized
CN1CC(=O)N2[C@H](c3ccc4c(c3)OCO4)c3[nH]c4ccccc4c3C[C@@H]2C1=O	Compound metabolized	Compound metabolized	Compound NOT metabolized	Compound metabolized	Compound NOT metabolized	Compound metabolized	Compound NOT metabolized	Compound metabolized	Compound metabolized	Compound metabolized	Compound metabolized	Compound metabolized	Compound NOT metabolized	Compound NOT metabolized	Compound NOT metabolized	Compound NOT metabolized	Compound NOT metabolized	Compound metabolized	Compound metabolized	Compound metabolized
COc1cc2nc(N(C)CCCNC(=O)C3CCCO3)nc(N)c2cc1OC (stereo not given) [ALFUZOSIN]	Compound metabolized	Compound metabolized	Compound NOT metabolized	Compound metabolized	Compound metabolized	Compound NOT metabolized	Compound NOT metabolized	Compound NOT metabolized	Compound metabolized	Compound metabolized	Compound metabolized	Compound metabolized	Compound NOT metabolized	Compound NOT metabolized	Compound NOT metabolized	Compound NOT metabolized	Compound NOT metabolized	Compound NOT metabolized	Compound metabolized	Compound metabolized

From ChEMBL document CHEMBL5724914, “Linking interpersonal differences in gut microbiota composition and drug biotransformation activity” (2024)
